Measured values as given in PubChem BioAssay AID256 (DTP/NCI, 2004).
Where “and” joins values, the source holds several entries; their conditions need not be identical. Equal values may be shown once. Toxic doses and inconclusive results are not listed. Rule for the calls: active = survival T/C of 150% or more; inactive = T/C below 125% in these data.

Tested on: CD2F1 mice, L1210 leukemia ip, survival T/C
Experiment: NCI In Vivo Anticancer Drug Screen. Data for tumor model L1210 Leukemia (intraperitoneal) in CD2F1 (CDF1) mice
Conditions: endpoint: mean survival time, higher = longer survival
Procedure, shortened: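 Implant tumor; dose compound or vehicle; measure endpoint in both groups; report treated divided by control.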

[1] = dose: 50.0 mg/kg/injection, schedule: Q01DX009 (ip), vehicle: saline with Tween-80
[2] = dose: 100.0 mg/kg/injection, schedule: Q01DX009 (ip), vehicle: saline with Tween-80
[3] = dose: 200.0 mg/kg/injection, schedule: Q01DX009 (ip), vehicle: saline with Tween-80
[4] = dose: 100.0 mg/kg/injection, schedule: Q04DX003 (ip), vehicle: saline
[5] = dose: 400.0 mg/kg/injection, schedule: Q01DX009 (ip), vehicle: saline with Tween-80
[6] = dose: 100.0 mg/kg/injection, schedule: Q01DX001 (ip), vehicle: other
[7] = dose: 100.0 mg/kg/injection, schedule: Q01DX001 (ip), vehicle: saline
[8] = dose: 200.0 mg/kg/injection, schedule: Q01DX001 (ip), vehicle: other
[9] = dose: 200.0 mg/kg/injection, schedule: Q01DX001 (ip), vehicle: saline
[10] = dose: 400.0 mg/kg/injection, schedule: Q01DX001 (ip), vehicle: saline
[11] = dose: 100.0 mg/kg/injection, schedule: Q04DX003 (ip), vehicle: saline with Tween-80
[12] = dose: 200.0 mg/kg/injection, schedule: Q04DX003 (ip), vehicle: saline with Tween-80
[13] = dose: 400.0 mg/kg/injection, schedule: Q04DX003 (ip), vehicle: saline with Tween-80
[14] = dose: 100.0 mg/kg/injection, schedule: Q04DX002 (ip), vehicle: saline with Tween-80
[15] = dose: 200.0 mg/kg/injection, schedule: Q04DX002 (ip), vehicle: saline with Tween-80
[16] = dose: 400.0 mg/kg/injection, schedule: Q04DX002 (ip), vehicle: saline with Tween-80

Measured: T/C

Nc1nc(N)c2nc(CCOc3ccc(C(=O)NC(CCC(=O)O)C(=O)O)cc3)cnc2n1 (stereo not given)
inactive: dose: 0.38 mg/kg/injection, schedule: Q01DX009 (ip), vehicle: sodium bicarbonate 87 % of control | dose: 0.75 mg/kg/injection, schedule: Q01DX009 (ip), vehicle: sodium bicarbonate 90 % of control | dose: 1.5 mg/kg/injection, schedule: Q01DX009 (ip), vehicle: sodium bicarbonate 87 % of control | dose: 3.0 mg/kg/injection, schedule: Q01DX009 (ip), vehicle: sodium bicarbonate 87 % of control | dose: 6.0 mg/kg/injection, schedule: Q01DX009 (ip), vehicle: sodium bicarbonate 98 % of control | dose: 12.0 mg/kg/injection, schedule: Q01DX009 (ip), vehicle: distilled water + Tween-80 104 % of control | dose: 24.0 mg/kg/injection, schedule: Q01DX009 (ip), vehicle: distilled water + Tween-80 102 % of control | dose: 48.0 mg/kg/injection, schedule: Q01DX009 (ip), vehicle: distilled water + Tween-80 104 % of control

O=c1[nH]cnc2c1ncn2C1OC(CO)C(O)C1O.O=c1[nH]cnc2c1ncn2C1OC(CO)C(O)C1O.[NH2-].[NH2-].[Pt+2] (stereo not given)
inactive: dose: 12.5 mg/kg/injection, schedule: Q01DX009 (ip), vehicle: saline with Tween-80 92 % of control | dose: 25.0 mg/kg/injection, schedule: Q01DX009 (ip), vehicle: saline with Tween-80 96 % of control | [1] 100 % of control | [2] 92 % of control | [3] 103 % of control

NC(=O)C12CCCCC1CCC(=O)C2 (stereo not given)
inactive: dose: 25.0 mg/kg/injection, schedule: Q04DX003 (ip), vehicle: saline 93 % of control | dose: 50.0 mg/kg/injection, schedule: Q04DX003 (ip), vehicle: saline 96 % of control | [4] 90 % of control

CCCN1CSC(=S)N(Cc2ccccc2)C1
inactive: [2] 92 % of control | [3] 97 % of control | [5] 92 % of control

CC(=O)C(C)(NCc1ccccc1)c1ccccc1 (stereo not given)
inactive: dose: 50.0 mg/kg/injection, schedule: Q01DX009 (ip), vehicle: Klucel (hydroxypropylcellulose) (HPC) 97 % of control | [6] 100 % of control | [7] 101 % of control | dose: 100.0 mg/kg/injection, schedule: Q01DX009 (ip), vehicle: Klucel (hydroxypropylcellulose) (HPC) 100 % of control | [8] 92 % of control | [9] 95 % of control | dose: 200.0 mg/kg/injection, schedule: Q01DX009 (ip), vehicle: Klucel (hydroxypropylcellulose) (HPC) 100 % of control | dose: 400.0 mg/kg/injection, schedule: Q01DX001 (ip), vehicle: other 107 % of control | [10] 93 % of control | dose: 400.0 mg/kg/injection, schedule: Q01DX009 (ip), vehicle: Klucel (hydroxypropylcellulose) (HPC) 106 % of control

Cc1ccc(S(=O)(=O)CC(=O)O)cc1
inactive: [11] 102 % of control | [12] 102 % of control

CC1(C)C(C2CCCC[N+]2=O)CS1(=O)=O (stereo not given)
inactive: [7] 100 % of control | [4] 101 % of control | [9] 100 % of control | dose: 200.0 mg/kg/injection, schedule: Q04DX003 (ip), vehicle: saline 103 % of control | [10] 96 % of control | dose: 400.0 mg/kg/injection, schedule: Q04DX003 (ip), vehicle: saline 105 % of control

CC/C=C(\CC)CO
inactive: [1] 100 % of control | [2] 95 % of control | [3] 100 % of control

O=C(NC(=S)Nc1cccc(F)c1)c1cccc(Br)c1
inactive: dose: 50.0 mg/kg/injection, schedule: Q01DX009 (ip), vehicle: other 98 % of control and 104 % of control | dose: 50.0 mg/kg/injection, schedule: Q04DX003 (ip), vehicle: other 111 % of control | [6] 102 % of control | dose: 100.0 mg/kg/injection, schedule: Q04DX002 (ip), vehicle: other 95 % of control | dose: 100.0 mg/kg/injection, schedule: Q04DX003 (ip), vehicle: other 104 % of control | [8] 98 % of control | dose: 200.0 mg/kg/injection, schedule: Q04DX002 (ip), vehicle: other 91 % of control | dose: 200.0 mg/kg/injection, schedule: Q04DX003 (ip), vehicle: other 102 % of control | dose: 400.0 mg/kg/injection, schedule: Q04DX002 (ip), vehicle: other 101 % of control | dose: 400.0 mg/kg/injection, schedule: Q04DX003 (ip), vehicle: other 106 % of control

O=C(Nc1ccc(NC(=O)c2ccccc2)c2ccccc12)c1ccccc1
inactive: [11] 92 % of control | [13] 92 % of control

CCCCNCCC(=O)c1ccc(Cl)cc1
inactive: dose: 25.0 mg/kg/injection, schedule: Q04DX003 (ip), vehicle: saline with Tween-80 98 % of control | dose: 50.0 mg/kg/injection, schedule: Q04DX003 (ip), vehicle: saline with Tween-80 98 % of control

O=C1C=C(c2ccccc2)C(O)(c2ccccc2)/C1=C/c1ccccc1 (stereo not given)
inactive: [14] 87 % of control | [15] 88 % of control

CCCCOP(=O)(OCCCC)Oc1cccc2ccccc12
inactive: [14] 91 % of control | [15] 95 % of control | [16] 106 % of control

CCCCCCCCC(C(O)c1ccccc1)C(O)(C(F)(F)F)C(F)(F)F (stereo not given)
inactive: [11] 98 % of control | [12] 102 % of control | [13] 104 % of control

OC(Cc1ccccn1)c1ccccc1 (stereo not given)
inactive: [11] 95 % of control | [12] 101 % of control | [13] 98 % of control

COc1cc2nc(/C=C/c3nc4cc(OC)c(OC)cc4[nH]3)[nH]c2cc1OC
inactive: dose: 100.0 mg/kg/injection, schedule: Q01DX001 (ip), vehicle: saline with Tween-80 106 % of control

O=[N+]([O-])O.[NH-]C1CCCCC1[NH-].[NH-]C1CCCCC1[NH-].[Ni+2] (stereo not given)
inactive: dose: 50.0 mg/kg/injection, schedule: Q04DX002 (ip), vehicle: saline with Tween-80 110 % of control | [14] 113 % of control

Nc1ccc(C(=O)O)cc1S(=O)(=O)O
inactive: dose: 25.0 mg/kg/injection, schedule: Q01DX001 (ip), vehicle: Klucel (hydroxypropylcellulose) (HPC) 96 % of control | dose: 50.0 mg/kg/injection, schedule: Q01DX001 (ip), vehicle: Klucel (hydroxypropylcellulose) (HPC) 100 % of control | dose: 100.0 mg/kg/injection, schedule: Q01DX001 (ip), vehicle: Klucel (hydroxypropylcellulose) (HPC) 107 % of control

CO[C@@]12[C@@H]3N[C@@H]3CN1C1=C(C(=O)C(NCCN3CCCC3)=C(C)C1=O)[C@@H]2COC(N)=O
inactive: dose: 0.31 mg/kg/injection, schedule: Q01DX005 (ip), vehicle: water 101 % of control | dose: 0.62 mg/kg/injection, schedule: Q01DX005 (ip), vehicle: water 101 % of control | dose: 1.25 mg/kg/injection, schedule: Q01DX005 (ip), vehicle: water 113 % of control | dose: 1.5 mg/kg/injection, schedule: Q01DX001 (ip), vehicle: water 100 % of control | dose: 2.5 mg/kg/injection, schedule: Q01DX005 (ip), vehicle: water 120 % of control and 122 % of control | dose: 3.0 mg/kg/injection, schedule: Q01DX001 (ip), vehicle: water 94 % of control | dose: 6.0 mg/kg/injection, schedule: Q01DX001 (ip), vehicle: water 115 % of control | dose: 12.0 mg/kg/injection, schedule: Q01DX001 (ip), vehicle: water 103 % of control

CCOC(=O)/C(C#N)=C1\CCc2cc(OC)ccc21
inactive: [2] 92 % of control | [11] 103 % of control | [3] 93 % of control | [12] 92 % of control | [5] 92 % of control | [13] 98 % of control

CCn1c(=O)c2[nH]c(Cl)nc2n(CC)c1=O
inactive: dose: 25.0 mg/kg/injection, schedule: Q04DX003 (ip), vehicle: Klucel (hydroxypropylcellulose) (HPC) 102 % of control | dose: 50.0 mg/kg/injection, schedule: Q04DX003 (ip), vehicle: Klucel (hydroxypropylcellulose) (HPC) 105 % of control | dose: 100.0 mg/kg/injection, schedule: Q04DX003 (ip), vehicle: Klucel (hydroxypropylcellulose) (HPC) 107 % of control

COc1ccc(NC(=O)c2ccc(C(=O)Nc3ccc(OC)cc3)cc2)cc1
inactive: dose: 100.0 mg/kg/injection, schedule: Q01DX009 (ip), vehicle: saline 96 % of control | dose: 200.0 mg/kg/injection, schedule: Q01DX009 (ip), vehicle: saline 90 % of control | dose: 400.0 mg/kg/injection, schedule: Q01DX009 (ip), vehicle: saline 98 % of control

CC(C)(C)NC(=O)Cc1ccccc1
inactive: [1] 95 % of control | [2] 97 % of control | [3] 95 % of control

O=C(NCC1CCCC1)c1ccccc1
inactive: [7] 95 % of control | [9] 97 % of control | [10] 89 % of control

CC1C(=O)OC2C1CCC1(C)C=CC(=O)C3(C)OC213 (stereo not given)
inactive: [14] 108 % of control and 104 % of control | [15] 108 % of control and 124 % of control | [16] 120 % of control
